Experiments:
STAT3 = STAT3 (Homo sapiens, UniProt P40763); assay: STAT3 HiBiT degradation assay in transfected A549 cells; type: cell-based; parameters: expressed in transfected cells; host or cells: A549; settings: A549, 24 h; read-out: STAT3 HiBiT A549 degradation 24 h: Average external-Abs DC50
Method in brief: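 Degradation read as HiBiT-tagged STAT3 luminescence (Nano-Glo lytic reagent, 10 min, room temperature) following 24 h compound treatment of transfected A549 cells at 3-fold, 10 points. Percent remaining signal computed against controls and fitted with a four-parameter logistic; DC50 reported as letter bins (A <0.01 to D >1.0 µM).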

SU-DHL-1 tumor cells = assay: Xenograph tumor study, SU-DHL-1; type: in vivo, NOD SCID mice; settings: SUDHL-1 xenograph, 2.5-30 mg/kg, 2 days on/5 days off
Procedure: Animals: 50 6-8 week old female NOD SCID mice weighing 18 to 20 grams. 25 mice were used in each study.
Method for Tumor Inoculation: Each mouse was inoculated subcutaneously with SU-DHL-1 tumor cells (1×107+Matrigel) or SUP-M2 tumor cells (5×106+Matrigel) in 0.1 ml of RPMI1640 medium supplemented with 10% FBS, 100 U/ml penicillin and […] streptomycin for tumor development. Mice were then assigned to groups such that the mean tumor volume was the same for each treatment group and time point. […] Vehicle was 25% HP-β-CD in water adjusted to pH 7.4.
Measurement Parameters: Study animals were monitored not only for tumor growth but also behavior such as mobility, food and water consumption (by cage side checking only), body weight (BW), eye/hair matting and any other abnormal effect. Any mortality and/or abnormal clinical signs was recorded. Sponsor was notified immediately if abnormal clinical signs, or if tolerability issues were observed. Body weights of all animals were measured and recorded twice per week. The measurement of tumor size was conducted twice weekly with a caliper and recorded. The tumor volume (mm3) was estimated using the formula: TV=a×b2/2, where “a” and “b” are long and short diameters of a tumor, respectively.

Sequence of STAT3 (P40763 whole entry): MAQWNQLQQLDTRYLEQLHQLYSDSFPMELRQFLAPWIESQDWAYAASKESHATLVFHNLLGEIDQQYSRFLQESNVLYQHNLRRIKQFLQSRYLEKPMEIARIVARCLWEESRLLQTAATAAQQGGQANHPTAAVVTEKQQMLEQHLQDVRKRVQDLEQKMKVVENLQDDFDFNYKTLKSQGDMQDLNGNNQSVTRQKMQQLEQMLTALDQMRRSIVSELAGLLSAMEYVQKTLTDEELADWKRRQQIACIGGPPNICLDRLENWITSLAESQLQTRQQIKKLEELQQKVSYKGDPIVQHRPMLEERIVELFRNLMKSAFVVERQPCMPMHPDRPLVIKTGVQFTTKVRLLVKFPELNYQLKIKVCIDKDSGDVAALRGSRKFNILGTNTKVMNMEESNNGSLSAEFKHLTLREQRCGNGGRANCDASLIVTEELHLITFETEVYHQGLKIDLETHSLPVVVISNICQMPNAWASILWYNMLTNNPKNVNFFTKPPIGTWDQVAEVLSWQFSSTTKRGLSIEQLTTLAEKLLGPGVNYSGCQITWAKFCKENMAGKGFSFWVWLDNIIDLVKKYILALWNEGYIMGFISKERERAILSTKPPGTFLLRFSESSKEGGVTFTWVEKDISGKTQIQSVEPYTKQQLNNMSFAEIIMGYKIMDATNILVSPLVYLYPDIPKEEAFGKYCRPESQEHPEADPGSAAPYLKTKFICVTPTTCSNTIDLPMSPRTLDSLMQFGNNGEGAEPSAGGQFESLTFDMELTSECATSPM

For `Cn1c(=O)n(C2CCC(=O)NC2=O)c2ccc(C[C@H]3CC[C@@H](CC(=O)N4CC[C@H]5CC[C@@H](C(=O)N[C@@H](CCC(N)=O)C(=O)NCc6ccc(S(C)(=O)=O)cc6)N5C(=O)[C@@H](NC(=O)c5cc6cc(C(=O)P(=O)(O)O)ccc6[nH]5)C4)CC3)cc21` (stereo partly drawn) [Compound I-195, 2-[[(5S,8S,10aR)-8-[[(1S)-3-carbamoyl-1-[[(4-methanesulfonylphenyl)methyl]carbamoyl]propyl]carbamoyl]-6-oxo-3-[2-[(1S,4S)-4-[[1-(2,6-dioxopiperidin-3-yl)-3-methyl-2-oxo-1,3-benzodiazol-5-yl]methyl]cyclohexyl]acetyl]-octahydropyrrolo[1,2-a][1,5]diazocin-5-yl]carbamoyl]-1H-indole-5-carbonylphosphonic acid], the DC50 (STAT3) was 10 to 100 nM, the “tumor volume, 5 days” value (SU-DHL-1 tumor cells; IP) was “A (A<500 mm^3)” and the “tumor volume, 10 days” value (SU-DHL-1 tumor cells; IP) was “A (A<500 mm^3)”. For the same molecule, the “tumor volume, 15 days” value (SU-DHL-1 tumor cells; IP) was “A (A<500 mm^3)” and the “tumor volume, 20 days” value (SU-DHL-1 tumor cells; IP) was “A (A<500 mm^3)”.
For `CC(C)c1ccc(CNC(=O)[C@H](CCC(N)=O)NC(=O)[C@@H]2CC[C@@H]3CCN(C(=O)C[C@H]4CC[C@@H](Cc5ccc6c(c5)n(C)c(=O)n6C5CCC(=O)NC5=O)CC4)C[C@H](NC(=O)c4cc5cc(C(=O)P(=O)(O)O)ccc5[nH]4)C(=O)N32)cc1` (stereo partly drawn) [Compound I-196, 2-[[(5S,8S,10aR)-8-[[(1S)-3-carbamoyl-1-[[(4-isopropylphenyl)methyl]carbamoyl]propyl]carbamoyl]-6-oxo-3-[2-[(1S,4S)-4-[[1-(2,6-dioxopiperidin-3-yl)-3-methyl-2-oxo-1,3-benzodiazol-5-yl]methyl]cyclohexyl]acetyl]-octahydropyrrolo[1,2-a][1,5]diazocin-5-yl]carbamoyl]-1H-indole-5-carbonylphosphonic acid], the DC50 (STAT3) was 10 to 100 nM, the “tumor volume, 5 days” value (SU-DHL-1 tumor cells; IP) was “A (A<500 mm^3)” and the “tumor volume, 10 days” value (SU-DHL-1 tumor cells; IP) was “A (A<500 mm^3)”. The “tumor volume, 15 days” value (SU-DHL-1 tumor cells; IP) was “A (A<500 mm^3)” and the “tumor volume, 20 days” value (SU-DHL-1 tumor cells; IP) was “A (A<500 mm^3)”.
For `CC(=O)N1CC[C@H]2CC[C@@H](C(=O)N[C@@H](CCC(N)=O)COc3cccc(CCCCC(=O)N[C@H](C(=O)N4C[C@H](O)C[C@H]4C(=O)N[C@@H](C)c4ccc(-c5scnc5C)cc4)C(C)(C)C)c3Cl)N2C(=O)[C@@H](NC(=O)c2cc3cc(C(=O)P(=O)(O)O)ccc3[nH]2)C1` [Compound I-233, diammonium 2-[[(5S,8S,10aR)-3-acetyl-8-[[(2S)-4-carbamoyl-1-[2-chloro-3-(4-[[(2S)-1-[(2S,4R)-4-hydroxy-2-[[(1S)-1-[4-(4-methyl-1,3-thiazol-5-yl)phenyl]ethyl]carbamoyl]pyrrolidin-1-yl]-3,3-dimethyl-1-oxobutan-2-yl]carbamoyl]butyl)phenoxy]butan-2-yl]carbamoyl]-6-oxo-octahydropyrrolo[l,2-a][1,5]diazocin-5-yl]carbamoyl]-1H-indole-5-carbonylphosphonate], the DC50 (STAT3) was under 10 nM, the “tumor volume, 5 days” value (SU-DHL-1 tumor cells; IV) was “A (A<500 mm^3)” and the “tumor volume, 10 days” value (SU-DHL-1 tumor cells; IV) was “A (A<500 mm^3)”. For the same molecule, the “tumor volume, 15 days” value (SU-DHL-1 tumor cells; IV) was “A (A<500 mm^3)” and the “tumor volume, 20 days” value (SU-DHL-1 tumor cells; IV) was “A (A<500 mm^3)”.
For `CC(=O)N1CC[C@H]2CC[C@@H](C(=O)N[C@@H](CCC(N)=O)COc3cccc(CCCC(=O)N[C@H](C(=O)N4C[C@H](O)C[C@H]4C(=O)N[C@@H](C)c4ccc(-c5scnc5C)cc4)C(C)(C)C)c3Cl)N2C(=O)[C@@H](NC(=O)c2cc3cc(C(=O)P(=O)(O)O)ccc3[nH]2)C1` [Compound I-241, diammonium 2-[[(5S,8S,10aR)-3-acetyl-8-[[(2S)-4-carbamoyl-1-[2-chloro-3-(3-[[(2S)-1-[(2S,4R)-4-hydroxy-2-[[(1S)-1-[4-(4-methyl-1,3-thiazol-5-yl)phenyl]ethyl]carbamoyl]pyrrolidin-1-yl]-3,3-dimethyl-1-oxobutan-2-yl]carbamoyl]propyl)henoxy]butan-2-yl]carbamoyl]-6-oxo-octahydropyrrolo[1,2-a][1,5]diazocin-5-yl]carbamoyl]-1H-indole-5-carbonylphosphonate], the DC50 (STAT3) was under 10 nM, the “tumor volume, 5 days” value (SU-DHL-1 tumor cells; IV) was “A (A<500 mm^3)” and the “tumor volume, 10 days” value (SU-DHL-1 tumor cells; IV) was “A (A<500 mm^3)”. The “tumor volume, 15 days” value (SU-DHL-1 tumor cells; IV) was “A (A<500 mm^3)” and the “tumor volume, 20 days” value (SU-DHL-1 tumor cells; IV) was “A (A<500 mm^3)”.
With `Cc1ncsc1-c1ccc([C@H](C)NC(=O)[C@@H]2C[C@@H](O)CN2C(=O)[C@@H](NC(=O)CCCc2cccc(OC[C@H](CCC(N)=O)NC(=O)[C@@H]3Cc4cccc5c4N3C(=O)[C@@H](NC(=O)c3cc4cc(C(=O)P(=O)(O)O)ccc4[nH]3)CC5)c2F)C(C)(C)C)cc1` [Compound I-261, 2-[[(2S,11S)-2-[[(2S)-4-carbamoyl-1-[2-fluoro-3-(3-[[(2S)-1-[(2S,4R)-4-hydroxy-2-[[(1S)-1-[4-(4-methyl-1,3-thiazol-5-yl)phenyl]ethyl]carbamoyl]pyrrolidin-1-yl]-3,3-dimethyl-1-oxobutan-2-yl]carbamoyl]propyl)phenoxy]butan-2-yl]carbamoyl]-12-oxo-1-azatricyclo[6.4.1.0^[4,13]]trideca-4(13),5,7-trien-11-yl]carbamoyl]-1H-indole-5-carbonylphosphonic acid] the DC50 (STAT3) was under 10 nM, the “tumor volume, 5 days” value (SU-DHL-1 tumor cells; IP) was “A (A<500 mm^3)” and the “tumor volume, 10 days” value (SU-DHL-1 tumor cells; IP) was “A (A<500 mm^3)”. For the same molecule, the “tumor volume, 15 days” value (SU-DHL-1 tumor cells; IP) was “A (A<500 mm^3)” and the “tumor volume, 20 days” value (SU-DHL-1 tumor cells; IP) was “A (A<500 mm^3)”.
In the case of `CC(=O)N1CC[C@H]2CC[C@@H](C(=O)N[C@@H](CCC(N)=O)COc3cc(C)cc(CCCCCC(=O)N[C@H](C(=O)N4C[C@H](O)C[C@H]4C(=O)N[C@@H](C)c4ccc(-c5scnc5C)cc4)C(C)(C)C)c3F)N2C(=O)[C@@H](NC(=O)c2cc3cc(C(=O)P(=O)(O)O)ccc3[nH]2)C1` [Compound I-262, 2-[[(5S,8S,10aR)-3-acetyl-8-[[(2S)-4-carbamoyl-1-[2-fluoro-3-(5-[[(2S)-1-[(2S,4R)-4-hydroxy-2-[[(1S)-1-[4-(4-methyl-1,3-thiazol-5-yl)phenyl]ethyl]carbamoyl]pyrrolidin-1-yl]-3,3-dimethyl-1-oxobutan-2-yl]carbamoyl]pentyl)-5-methylphenoxy]butan-2-yl]carbamoyl]-6-oxo-octahydropyrrolo[1,2-a][1,5]diazocin-5-yl]carbamoyl]-1H-indole-5-carbonylphosphonic acid], the DC50 (STAT3) is reported as under 10 nM, the “tumor volume, 5 days” value (SU-DHL-1 tumor cells; IV) is reported as “A (A<500 mm^3)” and the “tumor volume, 10 days” value (SU-DHL-1 tumor cells; IV) is reported as “A (A<500 mm^3)”. The “tumor volume, 15 days” value (SU-DHL-1 tumor cells; IV) was “A (A<500 mm^3)” and the “tumor volume, 20 days” value (SU-DHL-1 tumor cells; IV) was “A (A<500 mm^3)”.
